Source: patent publication US7173021B2, “Synthesis of temozolomide esters as potent anticancer pro-drugs for topical and transdermal applications in treatments of cancers” (Tianjin North Pharm Sci-Tech Co., Ltd., priority 2004, dated 2007)
In brackets after ≈: the same amount, converted by molar mass. Entries after “also recorded” stand apart in the source; their conditions may differ.

Legend:
[1] = test system: MV3 (human melanoma); assay: In vitro tumour cell growth inhibition (MTT), MV3; assay type: cell-based; conditions: Homo sapiens, 96 h
Protocol: (§1) Temozolomide (white powder), temozolomide acid (white powder) and temozolomide-8-carboxylate hexyl (white scale crystal) were made in house. For the estimation of in vitro tumour cell growth inhibition, MV3 (human melanoma), M14 (human melanoma), B16 and B16-BL6 (mouse melanoma), SHG-44, TJ899 and TJ905 (human glioma), MCF-7 (human breast), HCT-8 (human colon), A549 (human non small lung), Bel7402 (human hepatocellulor), and BGC-823 (human stomach) were used. All tumour cells were cultured in RPMI-1640 medium supplemented with 10% fetal bovine serum (FBS) at 37° C. in a humidified 5% CO2 incubator.
(§2) After being harvested from culture flasks, a cell suspension of 1×10^4/ml was made by using 1640 RPMI medium supplemented with 10% fetal bovine serum. 100 μl (contains 1000 tumour cells) of the cell suspension was seeded per well of 96-well flat-bottom Costar culture plates at 37° C. in a humidified 5% CO2 incubator for 24 hrs before introducing drugs. Each tested compounds was made for five different concentrations and 100 μl of the each concentration was introduced into parallel three wells; control wells were added with 100 μl of plain medium alone; fluorouracil (a chemotherapeutic antitumour drug) was used as the positive control. Cells were then incubated for 96 h. Proliferative response and cell death were determined using MTT (3-(4,5-dimethylthiazolyl)-2,5-diphenyl-tetrazolium bromide) assay.
(§3) MTT assay: Following incubation of cells with the tested compounds for 96 h, 100 μl of 0.4 mg/ml MTT in RPMI 1640 was added to each well and the plate was incubated at 37° C. for 4 h. The plate was then centrifuged and followed by removal of medium. 150 μl of DMSO was then added to dissolve formazan crystal. DMSO-added plates were placed on a plate shaker for 5 min and absorbance was measured spectrophotometrically at 540 nm (with reference wavelength at 450 nm) using a Benchmark microtiter plate reader (Bio-Rad 550, Bio-Rad Laboratories, CA, U.S.A.).
(§4) The IC50 was calculated from the curve of the tested compound concentrations against the inhibition rate of the tumour cells. Table 1 summarized the experiment results by using six human cancer cell lines, HCT-8 (colon carcinoma), A549 (non small lung carcinoma), MCF-7 (breast), Bel7402 (hepatocellulor carcinoma), BGC-823 (stomach adenocarcinoma), and MV3 (melanoma). Table 2 summarized the results from the experiment results by using two human melanoma cell lines, MV3 and M14, two mouse melanoma cell lines, B16 and B16-BL6, and three human glioma cell lines, TJ899, SHG-44 and TJ905.

[2] = test system: M14 (human melanoma); assay: In vitro tumour cell growth inhibition (MTT), M14; assay type: cell-based; conditions: Homo sapiens, Table 2 experiment, 96 h
Protocol: as §1, §2, §3, §4

[3] = Measured log P, octanol/water; assay type: physicochemical; conditions: octanol/water system; read-out: measured Log P (mLog P)
Protocol: Log P values of temozolomide (1) and the temozolomide esters were calculated using TSAR (Oxford Molecular, Oxford, UK), Molecular Modeling Pro (ChemSW, Fairfield, Calif.) and Chem Office 7.0 (CambridgeSoft, Cambridge, UK) programmes. Calculated Log P values were verified for temozolomide and the temozolomide hexyl ester by measuring the octanol/water coefficient (Table 4).

[4] = test system: SHG-44 (human glioma); assay: In vitro tumour cell growth inhibition (MTT), SHG-44; assay type: cell-based; conditions: Homo sapiens, SHG-44, Table 2 experiment, 96 h
Protocol: as §1, §2, §3, §4

[5] = Solubility in 10% v/v propylene glycol; assay type: physicochemical; conditions: 10% v/v propylene glycol aqueous solution, aqueous with cosolvent or surfactant or cyclodextrin, thermodynamic from solid, ambient conditions, stirred 5 hours, read-out: Solubility, Concentration
Protocol: The potential of temozolomide esters used as topical and transdermal prodrugs is first proven through studies of their solubility. That is a decreased trend of solubility in an aqueous solution with increase of the length of the ester hydrocarbon alkyl chain of the temozolomide esters. It is clear the solubility constantly decreases from the methyl ester to the octyl ester, while temozolomide itself is 3.0 mg/ml similar to that of the methyl ester. […] Similarly to the esters, the solubility of the temozolomide amide products in the aqueous solution is considerably lower than that of temozolomide.
The solubility of temozolomide and the temozolomide esters was determined in 10% v/v propylene glycol by stirring an excess of the solid products at room temperature for 5 hours. The mixtures were then filtered, diluted with sample solvent and analysed using HPLC.

[6] = test system: TJ905 (human glioma); assay: In vitro tumour cell growth inhibition (MTT), TJ905; assay type: cell-based; conditions: Homo sapiens, Table 2 experiment, 96 h
Protocol: as §1, §2, §3, §4

[7] = test system: B16 (mouse melanoma); assay: In vitro tumour cell growth inhibition (MTT), B16; assay type: cell-based; conditions: Mus musculus, Table 2 experiment, 96 h
Protocol: as §1, §2, §3, §4

[8] = test system: B16-BL6 (mouse melanoma); assay: In vitro tumour cell growth inhibition (MTT), B16-BL6; assay type: cell-based; conditions: Mus musculus, B16-BL6, Table 2 experiment, 96 h
Protocol: as §1, §2, §3, §4

[9] = test system: TJ899 (human glioma); assay: In vitro tumour cell growth inhibition (MTT), TJ899; assay type: cell-based; conditions: Homo sapiens, Table 2 experiment, 96 h
Protocol: as §1, §2, §3, §4

[10] = In vitro permeation, Franz diffusion cell, silicone membrane; assay type: in vitro ADME; conditions: 37° C., 8 h, FIGS. 3-5
Source text: (§5) Jacketed Franz-type diffusion cells were used throughout the study and the barrier (12) (skin or silicone membrane) was mounted between the two chambers (14, 16) (2.8–3.4 cm^2 available surface area) with the dermal side in contact with the receiver solution (FIG. 2). The diffusion chambers (10) comprised a barrier of skin or silicone membrane (12) mounted between two chambers (14, 16). A cap (18) formed the donor compartment (14). The second receptor compartment (16) contained a receptor cell (20) with a stirring bar (22), sampling port (24) and cover (26). The stirring bar (22) was stirred by means of a magnet plate (28) having a rotating magnet. The receptor compartment comprised a water jacket (30) having a water inlet (32) and a water outlet (34).
(§6) Three types of materials were used in permeation studies. • 1. Silicone membrane (Silastic Medical Grade, 500-5, Dow Corning 0.005 in thick) was cut into circular sections (2 cm diameter) and washed with double distilled water prior to use. • 2. Full-thickness rat skin was obtained from Male Wistar rats aged 10 to 12 weeks and weighing 250 to 300 g, which were sacrificed by cervical dislocation, the abdomen shaved and the intact skin removed by dissection. Following removal of fat tissue, the skin was cut into circular pieces and used immediately. • 3. Samples of adult human epidermis were purchased from the Stephen Kirby Skin Bank (UK). The samples were from the leg, were stored at −18° C. and used within one week. Experiments
The membrane (as detailed above) was mounted on the diffusion cell (10), on which the surface area available for diffusion of each cell was about 2.8–3.4 cm^2. The cell cap (18) was placed on the membrane (12), and it was sealed with Parafilm® connecting the cell cap, membrane, and receptor cell. The capacity of each receptor cell was around 25–26 ml, which was filled with receptor solution and was completely in contact with the membrane sheet. During the course of experiment, the solution was continuously stirred by teflon-coated magnetic bar (22) placed in the cell (20). The temperature was maintained at 37° C. by a thermostatic water pump that circulated the water through the jacket (30) surrounding the cell body. The system was allowed to equilibrate under these conditions for half an hour. Finally, the prepared sample solution (2 ml) was added into the donor cap cell, and it was sealed with Parafilm® to minimize the evaporation of donor solution. 1 ml of receptor solution was removed every 30 minutes for 5 hours and then every 60 minutes for a further 3 hours. The volumes withdrawn were always replaced with equal volumes of fresh receptor solution to maintain constant volume. The concentration of each sample solution was determined by using HPLC.
For every sample, six determinations were performed on human and rat skin, and three determinations were carried out through artificial silicone membrane.
(§7) As stated above, after the removal of receptor solution, the receiver compartment was refilled with an identical volume of receptor fluid. This causes of the dilution of receptor solution leading to an under determination of the sample concentration. As a consequence, it was necessary to mathematically correct each successive sample concentrations, in the present invention, which was determined by applying the following equation:
(§8) [formula] where Ct is the actual current concentration of drug in the receptor phase at time t, Cmt is the apparent (i.e. measured) current concentration of drug in the receptor phase, Vs is the sample volume withdrawn for analysis, Vr is the volume of receptor solution, and ΣCm is the summed total of the previous measured concentrations.
(§9) Finally, the amount of drug penetrating the skin per unit area was calculated by dividing the obtained concentrations by the surface area available for diffusion cell and this value was different for each individual cell. […]

[11] = test system: BGC-823 (human stomach); assay: In vitro tumour cell growth inhibition (MTT), BGC-823; assay type: cell-based; conditions: Table 1 experiment, 96 h
Protocol: as §1, §2, §3
(§10) The IC50 was calculated from the curve of the tested compound concentrations against the inhibition rate of the tumour cells. […]

[12] = test system: MCF-7 (human breast); assay: In vitro tumour cell growth inhibition (MTT), MCF-7; assay type: cell-based; conditions: MCF7, Table 1 experiment, 96 h
Protocol: as §1, §2, §3, §10

[13] = test system: Bel7402 (human hepatocellulor); assay: In vitro tumour cell growth inhibition (MTT), Bel-7402; assay type: cell-based; conditions: Table 1 experiment, 96 h
Protocol: as §1, §2, §3, §10

[14] = test system: TLX5 lymphoma cell line; conditions: Tsang 1990; cited from earlier work
[15] = test system: A549 (human non small lung); assay: In vitro tumour cell growth inhibition (MTT), A549; assay type: cell-based; conditions: Table 1 experiment, 96 h
Protocol: as §1, §2, §3, §10

[16] = test system: HCT-8 (human colon); assay: In vitro tumour cell growth inhibition (MTT), HCT-8; assay type: cell-based; conditions: Table 1 experiment, 96 h
Protocol: as §1, §2, §3, §10

[17] = In vitro permeation and metabolism, Franz diffusion cell, human skin; assay type: in vitro ADME
Source text: as §5, §6
The membrane (as detailed above) was mounted on the diffusion cell (10), on which the surface area available for diffusion of each cell was about 2.8–3.4 cm^2. The cell cap (18) was placed on the membrane (12), and it was sealed with Parafilm® connecting the cell cap, membrane, and receptor cell. […] The concentration of each sample solution was determined by using HPLC. […]
as §7, with “This causes of the dilution of receptor solution leading to an under determination of the sample concentration.” left out
as §8, §9

[18] = test system: pig liver esterase; assay: Enzymatic metabolizing study with pig liver esterase (1H NMR); assay type: in vitro ADME; conditions: 37° C., pH 7.4 buffer; ester complete at 10 minutes; amide followed up to 8 hours
Protocol: First the present invention establishes the metabolised process of the temozolomide esters by pig liver esterase in vitro. ^1H NMR spectra 1 (FIG. 1) records the degradation profile of the temozolomide methyl ester under incubation condition (Rathbone D L, 1999). […] Finally, at 10 minutes, the intensity of the singlet at 3.58 ppm grows to the grade similar to the original of the two singlets at 3.63 and 3.65 ppm, which while are completely eliminated. […] This discovery establishes the solid foundation for the temozolomide esters to be considered as the potential anticancer pro-drugs.
Enzymatic metabolizing studies of the temozolomide methyl ester was carried out using pig liver esterase enzyme from Sigma [a suspension in 3.2 M ammonium sulphate solution pH 8; 200 unit/mg protein (14 mg protein/ml)]. • A. To a NMR tube 2 mg of the temozolomide methyl ester was added, followed by 0.2 ml of d6-DMSO, 0.5 ml D2O of pH 7.4 sulphate buffer and finally 50 μl of the enzyme solution. Record a ^1H NMR spectrum immediately, then the mixture was incubated at 37° C. and record a ^1H NMR spectrum at each 5 minutes time interval. […] The samples were dissolved in d6-DMSO in an NMR tube, 50 μl of enzyme solution was added and the solution incubated at 37° C.

IC50 ([1]; Table 2 experiment (separate)) | IC50 [2] | logP [3] | IC50 [4] | solubility at 5 h [5] | IC50 [6] | IC50 [7] | IC50 [8] | IC50 [9] | IC50 [11] | IC50 [12] | IC50 [13] | IC50 ([1]; Table 1 experiment) | IC50 [15] | IC50 [16] | Permeation through human skin ([17]; 37° C., FIG. 9) | Metabolism within human skin to temozolomide acid ([17]; human skin) | SMILES | Permeation through synthetic silicone membrane [10] | in vitro IC50 compared with temozolomide [14] | Degradation to temozolomide acid by pig liver esterase [18]
7.86 µg/mL (≈ 40.5 µM) | > 100 µg/mL | -0.66 | 9.04 µg/mL (≈ 46.6 µM) | 3000 µg/mL (≈ 15500 µM) | > 100 µg/mL | 61.9 µg/mL (≈ 319 µM) | > 100 µg/mL | > 100 µg/mL |  |  |  |  |  |  |  |  | Cn1nnc2c(C(N)=O)ncn2c1=O [Temozolomide, 8-Carbamoyl-3-methylimidazo[5,1-d]-1,2,3,5-tetrazine-4(3H)-one] | can not pass through the synthetic membrane easily; also recorded: lowest permeation |  | 
36 µg/mL (≈ 185 µM) | 99 µg/mL (≈ 507 µM) |  | 7.07 µg/mL (≈ 36.2 µM) |  | > 100 µg/mL | 36.2 µg/mL (≈ 185 µM) | 43.5 µg/mL (≈ 223 µM) | > 100 µg/mL | > 19.5 µg/mL | 14.9 µg/mL (≈ 76.4 µM) | 17 µg/mL (≈ 86.9 µM) | 14.6 µg/mL (≈ 74.9 µM) | > 19.5 µg/mL | 18.5 µg/mL (≈ 94.9 µM) |  |  | Cn1nnc2c(C(=O)O)ncn2c1=O [temozolomide acid, 3,4-dihydro-3-methyl-4-oxoimidazo[5,1-d]-1,2,3,5-tetrazine-8-carboxylic acid] |  | almost identical to that of temozolomide | 
 |  |  |  | 1800 µg/mL (≈ 7190 µM) |  |  |  |  |  |  |  |  |  |  | notably better than temozolomide | resistant to metabolism | CCCCNC(=O)c1ncn2c(=O)n(C)nnc12 [Temozolomide n-butyl amide, 3-Methyl-N-(n-butyl)-4-oxoimidazo[5,1-d]-1,2,3,5-tetrazine-8-carboxamide] |  |  | no the temozolomide acid was observed; also recorded: gradually decomposed into un-identifiable products without the observation of temozolomide acid
